Assay results taken from article PMC5974403, “The novel histone de acetylase 6 inhibitor, MPT0G211, ameliorates tau phosphorylation and cognitive deficits in an Alzheimer’s disease model” (Cell Death & Disease, 2018).

Legend:
[1] = system: SH-SY5Y cells; assay: Western blot of acetyl-α-tubulin and acetyl-histone, SH-SY5Y cells; format: cell-based, human; conditions: 0.1 to 1 μM, 24 h
Description: (§1) Cell viabilities were determined by MTT assay. The results represent the mean ± SEM of three independent experiments; *p < 0.05, **p < 0.01 and ***p < 0.001 compared with controls TEXT PRINTED IN THE PICTURE: (A) no label printed: M.W. 293.32
(§2) Cells (1 × 10^6) were incubated for 10 min at 4 °C in lysis buffer (20 mM HEPES, pH 7.4, 2 mM EGTA, 50 mM β-glycerophosphate, 0.1% Triton X-100, 10% glycerol, 1 mM dithiothreitol, 1 μg/mL leupeptin, 5 μg/mL aprotinin, 1 mM phenylmethylsulfonyl fluoride, and 1 mM sodium orthovanadate), scraped from the plate, incubated on ice for 10 min, and centrifuged at 17,000 × g for 30 min at 4 °C. Protein samples (30 μg) were electrophoresed through sodium dodecyl sulfate-polyacrylamide gels (SDS-PAGE) and transferred onto a nitrocellulose membrane, which was then blocked by incubation for 30 min at room temperature with 5% fat-free milk in PBS. Immunoblotting was performed by overnight incubation at 4 °C with primary antibodies in PBS, followed by incubation for 1 h at room temperature with HRP-conjugated secondary antibodies. Bound antibodies were measured using ECL reagent (T-Pro Biotechnology, New Taipei City, Taiwan), and the membrane was placed on a photographic film. Cell lysates (30 μg) were incubated with antibodies (1 μg each) and protein A/G agarose beads overnight at 4 °C. The precipitated beads were washed three times with 1 mL of ice-cold cell lysis buffer, and bound immune complexes were separated using 8% SDS-PAGE, followed by immunoblotting using the indicated primary antibody.

[2] = system: Neuro-2a cells; assay: Western blot of acetyl-α-tubulin and acetyl-histone, Neuro-2a cells; format: cell-based, mouse; conditions: 0.1 to 1 μM, 24 h
Description: as §1, §2

[3] = system: SH-SY5Y cells; assay: MTT cell viability, SH-SY5Y; format: cell-based, human; conditions: 24 h, 0.01–1 μM
Description: as §1

[4] = system: SH-SY5Y cells; assay: Flow cytometry of sub-G1 (PI) and annexin V/PI in transfected SH-SY5Y cells; format: cell-based, human; conditions: 0.1 μM, 24 h
Description: The fractionation scheme used to separate different cellular pools of tau, and the western blot analysis of the effects of the compounds on tau pools generated using the fractionation scheme are presented. b, d SH-SY5Y cells were transfected for 24 h with pCAX APP 695 and pRK5-EGFP-Tau P301L, incubated with or without MPT0G211 or ACY-1215 (0.1 μM) for another 24 h, and then the cells were fixed and stained by propidium iodide (b) or annexin V/PI double staining (d) and analyzed by flow cytometry. c, e Percentages of the subG1 phase (c) or annexin V-positive cells (e) in response to drug treatment as explained in (b). Results are presented as the mean ± SEM. *p < 0.05 and **p < 0.01 compared with the control group; ^#p < 0.05 and ^##p < 0.01 compared with the indicated groups TEXT PRINTED IN THE PICTURE: (B) MPT0G211: hAPP + hTauP301L: SubG1 10.91% | (B) ACY-1215: hAPP + hTauP301L: SubG1 15.40% | (D) MPT0G211: hAPP + hTauP301L: 9.56%; hAPP + hTauP301L: 11.26% | (D) ACY-1215: hAPP + hTauP301L: 9.28%; hAPP + hTauP301L: 11.25%
After drug treatment, the cells were collected, washed with cold phosphate-buffered saline (PBS), and fixed with 75% alcohol overnight at −20 °C. After centrifugation, the fixed cells were washed with cold PBS and resuspended in DNA extraction buffer (0.2 M Na2HPO4, 0.1 M citric acid, pH 7.8) for 30 min. The cells were centrifuged and incubated with propidium iodide (PI) (0.1% Triton X-100, 100 μg/mL RNase A, and 80 μg/mL PI in PBS) for 30 min. The cell cycle was analyzed using a FACScan Flow cytometer and Cell Quest software (Becton Dickinson, Mountain View, CA, USA).

[5] = system: Neuro-2a cells; assay: Immunoprecipitation/immunoblot of HDAC6, acetyl-lysine, ubiquitin in transfected Neuro-2a cells; format: cell-based, mouse; conditions: Neuro-2a transfected, 24 h
Description: Fig. 4 MPT0G211 increased the ubiquitination of p-tau and degradation by proteasome. a, b SH-SY5Y and Neuro-2a cells were transfected for 24 h with pCAX APP 695 and pRK5-EGFP-Tau P301L and incubated with MPT0G211 or ACY-1215 (0.1 μM) for another 24 h, after which the cell lysates were immunoprecipitated with antibodies against HDAC6, acetyl-lysine (a) or ubiquitin (b) and were subjected to immunoblotting. c Cells were transfected with pCAX APP 695 and pRK5-EGFP-Tau P301L for 24 h and were then incubated with MPT0G211 (0.01–1 μM) for another 24 h. Immunoblots reveal polyubiquitin complexes. d pCAX APP 695 or pRK5-EGFP-Tau P301L were used to transfect the cells for 24 h, incubated with or without MG132 (1 μM) for 30 min, and were then treated with MPT0G211 or ACY-1215 (0.1 μM) for another 24 h. Cell lysates were prepared for western blot analysis of the indicated proteins
as §2

[6] = system: SH-SY5Y cells; assay: Aβ1–40-induced tau phosphorylation, western blot; format: cell-based, human; conditions: Aβ1–40 10 μM 24 h, then 0.1 μM for 24 h
Description: Cell lysates were prepared for western blot analysis of the indicated proteins. Results are presented as the mean ± SEM. *p < 0.05, **p < 0.01, and ***p < 0.001 compared with the control group; ^#p < 0.05, ^##p < 0.01, ^###p < 0.001 compared with the indicated groups
as §2, with “The precipitated beads were washed three times with 1 mL of ice-cold cell lysis buffer, and bound immune complexes were separated using 8% SDS-PAGE, followed by immunoblotting using the indicated primary antibody.” left out

[7] = system: HDAC6; parameters: method as in PMID 29304284; conditions: cited from earlier work
[8] = hAPP + hTauP301L transfected SH-SY5Y, Fig. 3d picture, quadrant not identified

SMILES: O=C(NO)c1ccc(CNc2cccc3cccnc23)cc1 [MPT0G211, N-hydroxy-4-((quinolin-8-ylamino)methyl)benzamide]
- acetylation of histones [1]: without affecting the acetylation of histones
- acetylation of α-tubulin [1]: concentration-dependently increased
- acetylation of histones [2]: without affecting the acetylation of histones
- acetylation of α-tubulin [2]: concentration-dependently increased
- cytotoxicity (MTT cell viability) [3]: did not result in any significant cytotoxicity
- SubG1 population ([4]; hAPP + hTauP301L transfected SH-SY5Y, PI staining, Fig. 3b picture): 10.91%
- annexin V/PI double staining, quadrant percentage [4, 8]: 11.26%
- annexin V/PI double staining, quadrant percentage (first value) [4, 8]: 9.56%
- plasmid transfection-induced sub-G1 population and annexin V-positive apoptotic cells increase ([4]; transfected neuronal cells): significantly inhibited
- coimmunoprecipitation of ubiquitin with p-tau (Ser396) ([5]; 0.1 μM): clearly increased
- HDAC6/Hsp90 binding ([5]; 0.1 μM, IP): downregulation
- acetylation of Hsp90 ([5]; 0.1 μM, IP): clearly enhanced
- level of polyubiquitinated proteins ([5]; 0.01–1 μM): significantly accumulated
- GSK3β activity and Aβ1–40-induced tau phosphorylation [6]: diminished
- selectivity for HDAC6 compared with the other HDAC isoforms [7]: 1000 fold
- IC50 ([7]; read-out: HDAC6 inhibition IC50): 0.291 nM
